The conditions of data set [1]: i.v., dogs, one specific HMM hydrochloride preparation; cited from earlier work.
The conditions of data set [2]: man; cited from earlier work.
The conditions of data set [3]: cited from earlier work.
The conditions of data set [4]: clinical; cited from earlier work.
The nature of data set [5]: Phase I clinical trial, toxicity of intravenous HMM. The class given is in vivo, human (cancer patients). The protocol:
(§1) Eighteen patients were treated on the one day every four weeks schedule and 28 patients were treated on the daily ×5 four weeks schedule. Tumors included lung, colorectal, gastric, breast, ovarian, renal, bladder, parotide, hepatic, small bowel, thyroid, fibrosarcoma and fibroblastic osteosarcoma. Forty-five of 47 patients had received prior chemotherapy and/or radiotherapy. All patients had histologic or cytologic confirmation of unresectable cancer for which there was no conventional means of therapy that offered reasonable hope of cure or of significant palliation. All patients were ambulatory and in a reasonable state of nutrition. Patients were required to have WBC count ≥4,000/mm^2, platelet count ≥130,000 m^2, hemoglobin ≥10 g/dl, serum creatinine ≤1.5 mg/dl, ECOG performance status <3, fasting serum triglycerides ≤500 mg/dl. Patients were excluded if they presented with uncontrolled infections, persistent (daily) nausea and/or vomiting, significant chronic obstructive pulmonary disease, any neurologic impairment, major surgery within the proceeding 30 days, radiation to >15% of the bone marrow within 30 days or radiation to total area >30% of bone marrow at any time.
(§2) Tests done prior to entry into study included a history, physical examination and tumor measurement whenever possible, WBC count, hemoglobin, platelet count, chest x-ray, electrocardiogram, electroencephalogram, urine analysis, triglycerides, SGOT, and serum creatinine. Between courses of treatment, the hematology group was checked twice weekly and the hemoglobin, SGOT and serum creatinine once weekly. Triglycerides were determined before and after each HMM treatment. Patients were entered in groups of three at each dose level. New patients were entered at a higher dose level only after the three patients treated at the previous level had been observed for a minimum of three weeks, counting from the last day of treatment. Patients not having significant toxicity at a given dose level were retreated at the next higher dose level but a minimum of three patients who never received HMM were entered at each escalation on each schedule. Dose levels on the daily ×5 schedule were […]. Dose increments for the one-day schedule were 360, 540, 675, 750, 844, and 1,000 mg/m^2.
(§3) Unit dose amounts of drug, Intralipid 10%®, and diluents were changed as dose levels of HMM increased throughout the study. At doses which will be relevant for Phase II evaluation of the parenteral formulation, the following drug preparation scheme was employed. The Mayo Comprehensive Cancer Center Pharmacy weighed 500 mg portions of bulk HMM into sterile vials. HMM was dissolved in 0.1 N hydrochloric acid (sterile HCl for parenteral administration, USP) by adding 27.50 ml of the 0.1 N HCl to each 500 mg vial. The concentration of this solution was 18.2 mg HMM.HCl/ml. The volume of the HMM.HCl solution to be drawn up for each patient was determined by dividing the patient dose level by 18.2 (e.g., for a 750 mg dose, 750 mg divided by 18.2 mg/ml =41.2 ml of the HMM.HCl solution withdrawn from the vial). A 0.22 micron filter assembly was fitted to the syringe containing the appropriate HMM.HCl solution. The volume was filtered into a 500 ml empty sterile and sealed vial. Thus, the correct patient dose was placed in the evacuated vial. An equal volume of air was withdrawn from the sealed vial to maintain vacuum.
(§4) The amount of Intralipid 10%® to be added was determined by dividing the dose by 5.1 (e.g. 750 divided by 5.1=147 ml). The appropriate volume of Intralipid 10%® was added to the 500 ml vial containing the HMM.HCl solution. […]

Data set [6] is described as follows: Phase I plasma and urine pharmacokinetics of intravenous HMM in Intralipid 10% (GC assay). It counts as in vivo, human (cancer patients). How it is done: as §1, §2, §3, §4
Data set [7] concerns ovarian adenocarcinoma, metastatic small cell carcinoma of the lung, metastatic breast cancer and refractory lymphoma. The settings on record: single agent clinical trials; cited from earlier work.
Data set [8] can be described thus: HMM concentration in formulation before and after filtration (% theoretical) and precipitation. The class given is physicochemical. The settings on record: for % Theoretical HMM Concentration, After Filter: 0.45μ filter. How it is done: as §3
The amount of Intralipid 10%® to be added was determined by dividing the dose by 5.1 (e.g. 750 divided by 5.1=147 ml). The appropriate volume of Intralipid 10%® was added to the 500 ml vial containing the HMM.HCl solution. Finally, the volume of sodium bicarbonate (sodium bicarbonate for parenteral injection, USP, 1 mEq/ml) was determined by the formula of 0.1 ml sodium bicarbonate for every 20 mg of HMM to be administered (e.g., 750 mg divided by 20=37.5×0.1 ml =3.75 ml sodium bicarbonate). This provided approximately a 4 mg/ml solution of HMM-Intralipid 10%®. A vented tubing set was added to the bottle with the patient's dose. A particulate filter (4.5 micron) was attached to an 18 gauge needle and the filter and needle were placed on the tubing to fill the 500 ml empty bag. The drug was administered at a rate of 2 ml/min or 8 mg/min. Thus, infusion time was lengthened as dose levels increased maintaining a constant rate of drug administration. Fifty (50) ml of normal saline was infused following completion of the HMM infusion.
Details of drug preparation are described in the Methods section while a summary of the formulation procedure is shown in Table 1, below.
This modification of the initial formulation reported in Cancer Treat. Rep., 66, 1579 (1982) to first dissolve the HMM in aqueous HCl, eliminated the use of a toxic organic solvent (ethanol or dimethylacetamide) while ensuring complete and uniform mixing of drug with Intralipid 10%®. Assessment of the formulated product was determined at each step of the procedure by measuring HMM concentrations before and after filtration through 0.45 micron filters (Intralipid 10%® average particle size is approximately 0.40 micron). […] HMM concentrations following filtration of such mixtures yielded <5% of the theoretical HMM concentration.

The conditions of data set [9]: oral administration, man; cited from earlier work.
For data set [10] the following is noted: oral administration, rabbits; due to extensive first-pass metabolism rather than poor absorption; cited from earlier work.
Data set [11] concerns refractory tumors. The data set is described as follows: Phase I clinical trial, tumor response to intravenous HMM. It counts as in vivo, human (cancer patients). The settings on record: i.v. The protocol: as §1, with “Patients were excluded if they presented with uncontrolled infections, persistent (daily) nausea and/or vomiting, significant chronic obstructive pulmonary disease, any neurologic impairment, major surgery within the proceeding 30 days, radiation to >15% of the bone marrow within 30 days or radiation to total area >30% of bone marrow at any time.” left out
Tests done prior to entry into study included a history, physical examination and tumor measurement whenever possible, WBC count, hemoglobin, platelet count, chest x-ray, electrocardiogram, electroencephalogram, urine analysis, triglycerides, SGOT, and serum creatinine. […] Triglycerides were determined before and after each HMM treatment. […]

[12] abbreviates: i.v., one-day or daily ×5 schedules.
Setting [13] is: 540 mg/m^2 i.v., three-compartment open model.
The mark [14] stands for this setting: after NaHCO3 (1 mEq/ml) 0.1 ml:5 ml, ca. 4 mg/ml.
[15] abbreviates: dissolved in 0.1 N HCl, ca. 20 mg/ml.

“Also recorded” adds a separate entry of the source. Where a name gives a salt, the structure may show the parent alone.

For the compound `CN(C)c1nc(N(C)C)nc(N(C)C)n1` [HMM hydrochloride], the “tolerability, intravenous” value in data set [1] is “well-tolerated”. Moreover, in data set [2], the “local irritation and phlebitis” value was “severe local irritation and phlebitis”.

As for `CN(C)c1nc(N(C)C)nc(N(C)C)n1` [HMM, 2,4,6-tris(dimethylamino)-1,3,5-triazine], the “solubility in water and nontoxic solvents” value in data set [3] was “very limited solubility in water and nontoxic solvents”. In data set [4], the delayed toxicity result is “moderate anemia, thrombocytopenia, leukopenia, and a peripheral neuropathy”; the “main acute adverse effects” value is “Nausea and vomiting”; the “peripheral neuropathy, symptoms” value is “parethesias, hypesthesias, motor weakness, and other sensory alterations”. Also, the “white blood cell counts” value in data set [5] (all patients) was ≥ 3,000 /μl. Besides, the maximally tolerated dose in data set [5] (daily ×5 schedule, i.v.) is ~630 mg/m^2 /day. The maximum-tolerated doses in data set [5] (five days in a row every four weeks) was 500-600 mg/m^2 /day. Besides, the myelosuppression entry in data set [5] (i.v.) is “minimal myelosuppression”. For the same compound, the “peripheral neuropathy compared with oral administration” value in data set [5] (i.v. aqueous fat emulsion vs same amount orally) is reported as “reduced from the level observed when the same amount of HMM is administered orally”. In data set [5] (setting [12]), the “CNS toxicity, peripheral neuropathy” value is listed as “no CNS toxicity, specifically peripheral neuropathy, was noted in any patients”; the dose-limiting toxicity entry is “nausea and vomiting”. For the same compound, in [5] (one-day administration of 540 mg/m^2), the “platelet nadir below 100,000/μl (one patient)” value was 75,000 /μl. In addition, in data set [5] (one-day or five-day regimen), the hematologic toxicities entry is “no significant hematologic toxicities”. Moreover, in data set [5] (one-day schedule, i.v.), the maximally tolerated dose result is “approximately 850 mg/m^2”. Besides, in data set [6] (setting [13]), the “steady state volume of distribution” value is reported as 460 1/m^2, the “steady state volume of distribution (Vdss)” value was found to be 460 l/m^2, the terminal half-life worked out at 10.4 h and the “total body clearance (ClTB)” value was 0.75 1/min/m^2. In addition, in data set [6] (945 mg/m^2, daily ×5), the “accumulation during five-day treatment” value was “disproportionate accumulation” and the “observed vs predicted (simulated) 24 hour trough plasma concentrations” value is recorded as “significantly greater than predicted”. In addition, the “accumulation during five-day treatment” value in data set [6] (945 mg/m^2, daily ×5, listed as hexamethylmelamine) was “possible saturation of parent drug elimination”. In addition, the “observed vs predicted (simulated) 24 hour trough plasma concentrations” value in data set [6] (506 and 632 mg/m^2, daily ×5) is “in agreement with predicted values”. The “Twenty-four hour urinary recoveries of parent drug” value in [6] (24 h, all patients) is recorded as “less than one”. Besides, in [6] (daily ×5 schedule, plasma), the “HMM 24 hours following each dose” value is “detected” and the “change of 24 hour drug concentration over days” value is listed as “increased each day”. The Cmax in data set [6] (human, iv, 540 mg/m^2 one-day schedule, five patients, plasma, read-out: Peak concentrations of HMM at the end of infusion) was in the range of 2550 to 9350 ng/mL. The half-life (in general, the time in which the quantity being followed falls by half) in [6] (human, plasma, iv, 540 mg/m^2 i.v., three-compartment open model, read-out: terminal half-life (converted)) is 10.4 h. Moreover, the dose excreted at 24 h in [6] (human, urine, iv, 24 h, read-out: 24 hour urinary recovery of parent drug) was < 1%. Moreover, the “plasma levels / plasma AUC compared with oral administration” value in data set [6] (i.v. vs oral) is given as “Substantially higher plasma AUC values”. Further, the “consistency of plasma concentrations compared with oral” value in data set [6] (i.v. vs oral (D'Incalci)) is reported as “more consistent plasma concentrations”. Besides, the demethylated urinary metabolites entry in [6] (urine) was “Demethylated urinary metabolites including penta-, tetra-, tri-, and di-methylmelamines were detected in urine”. Further, in [7], the active against cancers result was “active against a number of cancers including ovarian adenocarcinoma, metastatic small cell carcinoma of the lung, metastatic breast cancer and refractory lymphoma”. The “% Theoretical HMM Concentration, After Filter” value in data set [8] (after Intralipid 10% added 4 ml:1 ml, ca. 4 mg/ml) was 100%. Moreover, in [8] (setting [14]), the “% Theoretical HMM Concentration, Before Filter” value was 100% and the “% Theoretical HMM Concentration, After Filter” value is 100%. In addition, in data set [8] (setting [15]), the “% Theoretical HMM Concentration, Before Filter” value is given as 100% and the “% Theoretical HMM Concentration, After Filter” value is 100%. For the same compound, the “HMM concentration in the final filtered product, % of theoretical” value in [8] (final product, 0.45 micron filter) was 90-95%. Moreover, the “plasma concentrations of parent drug” value in [9] is “Low and variable plasma concentrations of parent drug”. For the same compound, the bioavailability entry in [10] was “poor bioavailability”. Also, in data set [11], the tumor responses entry is recorded as “No objective responses; also recorded: no tumor responses were observed”.

These data come from US5004593A (Mayo Foundation for Medical Education and Research, priority 1989, dated 1991).
